Results taken from patent US6699685B1, “Method, test media and chromogenic compounds for identifying and differentiating general coliforms and escherichia coli bacteria” (RCR Scientific, Inc., priority 1990, dated 2004).

Key:
[1] = Colony colour test of chromogenic substrate in medium (Example 1); format: cell-based; details: Staphylococcus faecalis
Text: (§1) 6-Chloroindolyl-β-D-galactoside and 5-bromo-4-chloro-3-indolyl-β-D-glucuronide (X-gluc) were each tested separately with 17 different bacterial species including β-galactosidase producing microorganisms, β-glucuronidase producing microorganisms, and microorganisms which produce neither enzyme.

[2] = system: Acinetobacter calcoaceticus; assay: as above; format: cell-based
Text: as §1

[3] = system: Bacillus cereus; assay: as above; format: cell-based
Text: as §1

[4] = system: Bacillus megaterium; assay: as above; format: cell-based
Text: as §1

[5] = system: Bacillus subtilus; assay: as above; format: cell-based
Text: as §1

[6] = system: Citrobacter freundii; assay: as above; format: cell-based
Text: as §1

[7] = system: Enterobacter aerogenes; assay: as above; format: cell-based
Text: as §1

[8] = system: Enterobacter cloacae; assay: as above; format: cell-based
Text: as §1

[9] = system: Escherichia coli; assay: as above; format: cell-based; details: for colour of colonies grown in medium containing the substrate: E. coli, substrates tested separately
Text: as §1

[10] = system: Klebsiella pneumoniae; assay: as above; format: cell-based
Text: as §1

[11] = system: Proteus vulgaris; assay: as above; format: cell-based
Text: as §1

[12] = system: Pseudomonas aeruginosa; assay: as above; format: cell-based
Text: as §1

[13] = system: Salmonella typhimurium; assay: as above; format: cell-based
Text: as §1

[14] = system: Sarcina lutea; assay: as above; format: cell-based
Text: as §1

[15] = system: Serratia marcescens; assay: as above; format: cell-based
Text: as §1

[16] = system: Staphylococcus aureus; assay: as above; format: cell-based
Text: as §1

[17] = system: Staphylococcus epidermidis; assay: as above; format: cell-based
Text: as §1

[18] = biological target: T1, β-glucuronidase (Escherichia coli, UniProt P05804); details: Watkins et al. 1988; cited from earlier work
T1 construct: E. coli produces β-galactosidase, but, unlike general (other) coliforms, also produces β-glucuronidase; endogenous in cells; host or cells: Escherichia coli colonies growing in the test medium

[19] = system: β-galactosidase
Text: The chromogenic β-galactosidase substrate is a β-galactoside comprising galactose joined by β-linkage to a substituent that forms an insoluble precipitate of a first color when liberated by the action of β-galactosidase on the substrate.

[20] = system: coliforms; assay: Enzyme inducer added to medium; format: cell-based; details: approximately 25 mg/liter of medium; some species of coliforms
Text: It is possible that the enzyme production of the general coliforms may be enhanced by the addition to the medium formulations of very small amounts of substances known as enzyme inducers. The specific inducer for β-galactosidase is available and is known chemically as isopropyl-β-D-thiogalactopyranoside.

[21] = biological target: T1, β-glucuronidase; assay: Precipitate formed by substrate upon reaction with enzyme; format: biochemical
Text: The β-glucuronidase substrates and compounds described herein as “glucuronides” include carboxylate salts formed by reacting a suitable base with the glucuronic carboxyl group. Suitable bases include alkali metal or alkaline earth metal hydroxides or carbonates, for example, sodium hydroxide, potassium hydroxide, calcium hydroxide, magnesium hydroxide, and corresponding carbonates; and nitrogen bases such as ammonia and alkylamines such as trimethylamine, triethylamine and cyclohexylamine.

[22] = system: β-galactosidase; details: known test compound; cited from earlier work

T1 sequence (P05804 whole entry): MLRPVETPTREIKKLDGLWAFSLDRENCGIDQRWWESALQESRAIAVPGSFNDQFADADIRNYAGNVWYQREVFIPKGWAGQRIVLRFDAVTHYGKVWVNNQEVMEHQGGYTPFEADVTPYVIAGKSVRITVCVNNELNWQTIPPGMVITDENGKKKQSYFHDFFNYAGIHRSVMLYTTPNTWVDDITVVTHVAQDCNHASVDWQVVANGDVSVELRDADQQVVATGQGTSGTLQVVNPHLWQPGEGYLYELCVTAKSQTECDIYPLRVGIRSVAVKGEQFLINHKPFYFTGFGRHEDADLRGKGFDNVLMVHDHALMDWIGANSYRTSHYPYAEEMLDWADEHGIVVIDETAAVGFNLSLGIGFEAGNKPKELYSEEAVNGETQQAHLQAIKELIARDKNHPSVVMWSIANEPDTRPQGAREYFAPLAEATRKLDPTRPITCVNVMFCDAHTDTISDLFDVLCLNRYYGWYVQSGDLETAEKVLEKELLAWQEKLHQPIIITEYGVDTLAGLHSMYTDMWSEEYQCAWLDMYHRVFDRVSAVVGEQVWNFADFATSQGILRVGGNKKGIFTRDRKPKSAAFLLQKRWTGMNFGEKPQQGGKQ

## O=C(O)[C@H]1O[C@@H](Oc2c[nH]c3ccc(Br)c(Cl)c23)[C@H](O)[C@@H](O)[C@@H]1O [X-gluc, 5-bromo-4-chloro-3-indolyl-β-D-glucuronide, reference compound]
[1]
  coloured colonies in X-gluc medium: −
[2]
  coloured colonies in X-gluc medium: −
[3]
  coloured colonies in X-gluc medium: −
[4]
  coloured colonies in X-gluc medium: −
[5]
  coloured colonies in X-gluc medium: −
[6]
  coloured colonies in X-gluc medium: −
[7]
  coloured colonies in X-gluc medium: −
[8]
  coloured colonies in X-gluc medium: −
[9]
  colour of colonies grown in medium containing the substrate: indigo blue colonies
[9]; Escherichia coli
  coloured colonies in X-gluc medium: +
[10]
  coloured colonies in X-gluc medium: −
[11]
  coloured colonies in X-gluc medium: −
[12]
  coloured colonies in X-gluc medium: −
[13]
  coloured colonies in X-gluc medium: −
[14]
  coloured colonies in X-gluc medium: −
[15]
  coloured colonies in X-gluc medium: −
[16]
  coloured colonies in X-gluc medium: −
[17]
  coloured colonies in X-gluc medium: −
[18]
  precipitate formed when acted on by β-glucuronidase: insoluble indigo blue precipitate

## OC[C@H]1O[C@@H](Oc2c[nH]c3cc(Cl)ccc23)[C@H](O)[C@@H](O)[C@H]1O [6-chloroindolyl-β-D-galactoside]
[1]
  coloured colonies in medium with 6-chloroindolyl-β-D-galactoside: −
[2]
  coloured colonies in medium with 6-chloroindolyl-β-D-galactoside: −
[3]
  coloured colonies in medium with 6-chloroindolyl-β-D-galactoside: −
[4]
  coloured colonies in medium with 6-chloroindolyl-β-D-galactoside: −
[5]
  coloured colonies in medium with 6-chloroindolyl-β-D-galactoside: −
[6]
  colour of colonies grown in medium containing the substrate: magenta colonies
  coloured colonies in medium with 6-chloroindolyl-β-D-galactoside: +
[7]
  colour of colonies grown in medium containing the substrate: magenta colonies
  coloured colonies in medium with 6-chloroindolyl-β-D-galactoside: +
[8]
  colour of colonies grown in medium containing the substrate: magenta colonies
  coloured colonies in medium with 6-chloroindolyl-β-D-galactoside: +
[9]
  colour of colonies grown in medium containing the substrate: magenta colonies
[9]; Escherichia coli
  coloured colonies in medium with 6-chloroindolyl-β-D-galactoside: +
[10]
  colour of colonies grown in medium containing the substrate: magenta colonies
  coloured colonies in medium with 6-chloroindolyl-β-D-galactoside: +
[11]
  coloured colonies in medium with 6-chloroindolyl-β-D-galactoside: −
[12]
  coloured colonies in medium with 6-chloroindolyl-β-D-galactoside: −
[13]
  coloured colonies in medium with 6-chloroindolyl-β-D-galactoside: −
[14]
  coloured colonies in medium with 6-chloroindolyl-β-D-galactoside: −
[15]
  coloured colonies in medium with 6-chloroindolyl-β-D-galactoside: −
[16]
  coloured colonies in medium with 6-chloroindolyl-β-D-galactoside: −
[17]
  coloured colonies in medium with 6-chloroindolyl-β-D-galactoside: −
[19]
  precipitate formed when reacted upon by β-galactosidase: insoluble magenta precipitate

## CC(C)S[C@@H]1O[C@H](CO)[C@H](O)[C@H](O)[C@H]1O [isopropyl-β-D-thiogalactopyranoside]
[20]
  effect on speed of enzyme (β-galactosidase) production: positive and noticeable effect on the speed of enzyme production

## O=C(O)[C@H]1O[C@@H](Oc2c[nH]c3cc(Cl)ccc23)[C@H](O)[C@@H](O)[C@@H]1O [6-chloroindolyl-β-D-glucuronide]
[21]
  precipitate formed when reacted upon by β-glucuronidase: insoluble magenta precipitate

## OC[C@H]1O[C@@H](Oc2c[nH]c3ccc(Br)c(Cl)c23)[C@H](O)[C@@H](O)[C@H]1O [X-gal, 5-bromo-4-chloro-3-indolyl-β-D-galactopyranoside]
[22]
  precipitate formed when acted on by β-galactosidase: insoluble indigo blue precipitate
